Laboratory results published in PMC8000395, “Effective Small Molecule Antibacterials from a Novel Anti-Protein Secretion Screen” (Microorganisms, 2021).
“And” between values parts separate entries of the source, which are not always exact repeats. Equal values may be shown once. Read-outs that look alike come from different tables or passages of the source.

Legend:
[1] = tested on: E. coli MG1655 LolA; set-up: method as in PMID 23473681; details: read-out: IC50 against E. coli MG1655 LolA; cited from earlier work
[2] = tested on: E. coli BL21; test: Antimicrobial activity test (growth, OD600); type: cell-based; details: for IC50: Escherichia coli, BL21, BL21, 20 h, 37 °C, OD600, read-out: Bacterial Viability IC50, E. coli BL21
[3] = tested on: E. coli MC4100; test: Antimicrobial activity test (growth, OD600); type: cell-based; details: for IC50: Escherichia coli, MC4100, 20 h, 37 °C, OD600, read-out: Bacterial Viability IC50, E. coli MC4100
[4] = tested on: PhoA secretion in E. coli MC4100; test: microbe, parasite or virus in culture; type: cell-based; details: for IC50: Escherichia coli, PNPP colorimetric lab-scale assay, read-out: Inhibition of PhoA Secretion IC50, Lab-Scale
[5] = tested on: Gram-positive bacteria; test: Antimicrobial activity test, summary over Gram-positive bacteria; type: cell-based; details: most Gram-positive bacteria
[6] = tested on: E. coli strains; test: Antimicrobial activity test, E. coli strains (strain not given with the value); type: cell-based; details: for IC50: strain not given, read-out: Growth inhibition IC50, E. coli strains
[7] = tested on: B. subtilis ATCC6633; test: Antimicrobial activity test (growth, OD600); type: cell-based; details: for IC50: Bacillus subtilis, ATCC6633, 20 h, 37 °C, OD600, read-out: Bacterial Viability IC50, B. subtilis ATCC6633
[8] = tested on: PhoA secretion in E. coli strain BL21 (pLysS); test: Luminescence-based HTS assay of in vivo PhoA secretion; type: cell-based; details: for IC50: Escherichia coli, BL21, luminescence-based HTS assay, E. coli BL21, read-out: Inhibition of PhoA Secretion IC50, HTS
[9] = tested on: E. coli; details: cited from earlier work
[10] = tested on: E. coli BW25113; test: Antimicrobial activity test (growth, OD600); type: cell-based; details: Escherichia coli, 20 h, 37 °C, read-out: Bacterial Viability IC50, E. coli BW25113
[11] = tested on: HEK293T cells; details: human, 24 h
Experimental: Hek293T cells were harvested and diluted obtaining a cell suspension with a concentration of 200,000 cells/mL in complete growth medium (DMEM, 4.5 g/L d-glucose, pyruvate 1 mM, 0.075% bicarbonate and 10% Fetal Bovine serum). Of this cell suspension, 50 µL (10,000/well) was seeded in a 384 well culture plate (white polystyrene, tissue culture treated) and incubated at 37 °C-5% CO2 for 4 h in a moisturized incubator, which enables the cells to adhere. After the incubation, small chemical compounds were diluted in medium and 10 µL of a compound solution was added onto the cells, ending up with the required compound concentration. The cells were incubated for 24 h at 37 °C-5% CO2 in a moisturized incubator where after × µL medium was removed to equalize the liquid levels within one plate ending up with ±25 µL/well. The amount of remaining cells/well was determined with ATPlite^TM 1step (Perkin Elmer) Adenosine TriPhosphate (ATP) monitoring system, which is based on firefly luciferase.
The cytotoxicity was calculated by subtracting RLU (relative light units) obtained from the cells incubated with a compound from the RLUs obtained from cells in the presence of the vehicle.
The cytotoxic effect of a test compound was determined as:
Percent cell death = [1−((RLU determined for sample with test compound present—1) divided by (RLU determined in the presence of vehicle—1))] * 100.

[12] = tested on: PhoA secretion in E. coli BW25113; test: Lab-scale p-nitrophenyl PhoA secretion assay, BW25113; type: cell-based; details: Escherichia coli, read-out: PhoA secretion in vivo IC50, E. coli BW25113
[13] = Turbidimetric kinetic aqueous solubility assay; type: physicochemical; details: pH 7, aqueous buffer, kinetic from dmso stock, turbidimetry 570 nm, PBS pH 7–7.2, 0.5% DMSO, 1 h; read-out: Aqueous Solubility (soluble at)
Experimental: The determination of the aqueous solubility of compounds in this assay is based on the principle of turbidimetry. Turbidimetric methods rely on the measurement of light scattering from precipitate in solution to determine the solubility. Precipitation is identified by an absorbance increase due to blockage of the light by the particles at the wavelength of 570 nm. Compounds, stored in matrix vials (Thermo Fisher) at a stock concentration of 30 mM or 10 mM in 100% Dimethyl sulfoxide (DMSO), were used to make a serial dilution (dose-response) in a 96-well v-bottom propylene plate (Greiner, 651201). Serial dilutions are made to perform the solubility assay; they were made row-wise and start with undiluted compound (30 mM or 10 mM) in the first well and were then 1 over 3 diluted further on. The serial dilutions were eight doses long and contain six compounds per plate maximal (rows B-G). Columns 1 and 12 were filled with 100% DMSO for control purposes. The dose-response plates were 200-times diluted in 300 µL Phosphate Buffered Saline (PBS; pH = 7–7.2 without Ca^2+/Mg^2+) (Gibco, 14190-144) by transferring 1.5 µL of serially diluted compound. […] Dilutions were made by diluting one 96-well plate in two 96-well, flat-bottom, polystyrene plates (Greiner, 655101). These plates were then incubated at room temperature for 1h. After 1h incubation, the plates were read on the envision (Perkin Elmer) at 570 nm.
The data of this assay is reported as “Soluble at” value for each compound. This “soluble at” value represents the concentration where the compound is still soluble and is the concentration before the first precipitated concentration. The first precipitated concentration is the concentration where the absorbance value is more than five standard deviations higher than the average background absorbance. The average background absorbance and the standard deviation are calculated on the 0.5% DMSO controls in columns 1 and 12.

[14] = tested on: PhoA secretion in BW25113ΔtolC; test: Lab-scale p-nitrophenyl PhoA secretion assay, ΔtolC strain; type: cell-based, E. coli
[15] = tested on: E. coli BW25113ΔtolC; test: Antimicrobial activity test (growth, OD600); details: for IC50: Escherichia coli, read-out: Viability IC50, BW25113ΔtolC, E. coli strain missing TolC; for Higher sensitivity of ΔtolC and imp-2413+ derivatives compared to BW25113: viability, Figure 5A
[16] = tested on: E. coli BW25113::imp-2413+; test: Antimicrobial activity test (growth, OD600); details: Escherichia coli, BW25113, read-out: Viability IC50, BW25113::imp-2413+
[17] = tested on: Gram-negative and Gram-positive bacteria; test: Antimicrobial activity test, summary over Gram-negative and Gram-positive bacteria; type: cell-based; details: 19 Gram-negative and Gram-positive species evaluated
[18] = tested on: Staphylococcus aureus ATC6538P; test: Antimicrobial activity test (growth, OD600); type: cell-based; details: read-out: Bacterial Viability (IC50)
[19] = Escherichia coli, read-out: Inhibition of PhoA Secretion IC50, Lab-Scale (ΔtolC strain), BW25113ΔtolC, p-nitrophenyl assay
[20] = E. coli BL21, MC4100 or BW25113
[21] = Escherichia coli, BW25113, BL21, E. coli BL21, MC4100 or BW25113
[22] = Staphylococcus aureus, ATC6538P

Row | SMILES | IC50 [10] [µM] | Toxicity of Mammalian Cells (HEK293T) LD50 [11] [µM] | IC50 [2] [µM] | IC50 [12] [µM] | IC50 [3] [µM] | solubility at 1 h [13] | IC50 [4] [µM] | IC50 [7] [µM] | IC50 [8] [µM] | IC50 [14, 19] [µM] | also measured
1 | N=C(N)SCc1ccc(Cl)c(Cl)c1 [A22, S-(3,4-dichlorobenzyl)isothiourea] | – | – | – | – | – | – | – | – | – | – | IC50 [1]: 200 µM
2 | [N-]=[N+]=[N-].[Na+] [CC#01, Sodium azide, reference compound] | – | – | – | – | – | – | – | – | – | – | Bacterial Viability, E. coli BL21 (value indicates MIC not IC50) ([2]; NaN3 control): 4000 µM; Bacterial Viability, E. coli MC4100 (value indicates MIC not IC50) ([3]; NaN3 control): 4000 µM; Level of secreted PhoA remaining ([4]; sodium azide, Figure 2A, assay format not stated): ~ 17%; Concentration required for any observable inhibition of Gram-positive bacteria [5]: > 100 mM; Growth inhibition of E. coli ([6]; at 4 mM): ~ 80%; Bacterial Viability, B. subtilis ATCC6633 (value indicates MIC not IC50) ([7]; NaN3 control): >100000 µM; Inhibition of secreted phosphatase activity ([8]; HTS assay conditions, sodium azide 4 mM positive control): > 90%; Antibacterial concentration for E. coli [9]: 3 to 4.6 mM
3 | CN(C)c1c(C(=O)O)cnc2ccccc12 [HSI#07] | > 100 | 60.2 | > 100 | 19 | > 100 | 150 µM and 32.4 µg/mL | 26.4 | > 100 | 19 | 19.9 | –
4 | O=C(O)c1cnc2ccc(Cl)cc2c1O [HSI#12] | 39.7 | 60.2 | 60 | 19 | > 100 | 50 µM and 11.8 µg/mL | 11.2 | > 100 | 11.5 | 26 | IC50 [15]: 23.3 µM; Higher sensitivity of ΔtolC and imp-2413+ derivatives compared to BW25113 [15]: 2 to 40 times; IC50 [16]: 41.4 µM; IC50 [6, 20]: < 65 µM and > 45 µM; IC50 [6, 21]: 44 to 65 µM; Antibacterial character [17]: bacteriocidal
5 | O=C(O)c1cnc2cc(Cl)ccc2c1O [HSI#14] | 31.3 | 60.2 | > 100 | 13.5 | > 100 | 150 µM and 33.5 µg/mL | 14.6 | > 100 | 13.4 | 11.5 | IC50 [15]: 17.2 µM; Higher sensitivity of ΔtolC and imp-2413+ derivatives compared to BW25113 [15]: 2 to 40 times; IC50 [16]: 36.2 µM; IC50 [6, 20]: < 65 µM and > 45 µM; IC50 [6, 21]: 44 to 65 µM; IC50 ([14]; read-out: Inhibition of PhoA Secretion IC50, Lab-Scale (ΔtolC strain), BW25113ΔtolC, p-nitrophenyl assay): 11.5 µM; Antibacterial character [17]: bacteriocidal
6 | N=C(N)SCc1ccc(Cl)cc1 [S-(4-chlorobenzyl)isothiourea] | – | – | – | – | – | – | – | – | – | – | IC50 [1]: 150 µM
7 | CC1(C)S[C@@H]2[C@H](NC(=O)[C@H](N)c3ccccc3)C(=O)N2[C@H]1C(=O)O [ampicillin, reference compound] | – | – | – | – | – | – | – | – | – | – | IC50 ([18]; Staphylococcus aureus ATC6538P): 0.01 µM
8 | CC1(C)S[C@@H]2[C@H](NC(=O)Cc3ccccc3)C(=O)N2[C@H]1C(=O)O [penicillin G, reference compound] | – | – | – | – | – | – | – | – | – | – | IC50 [18, 22]: 0.5 µM
9 | CN[C@H](CC(C)C)C(=O)N[C@H]1C(=O)N[C@@H](CC(N)=O)C(=O)N[C@H]2C(=O)N[C@H]3C(=O)N[C@H](C(=O)N[C@H](C(=O)O)c4cc(O)cc(O)c4-c4cc3ccc4O)[C@H](O)c3ccc(c(Cl)c3)Oc3cc2cc(c3O[C@@H]2O[C@H](CO)[C@@H](O)[C@H](O)[C@H]2O[C@H]2C[C@](C)(N)[C@H](O)[C@H](C)O2)Oc2ccc(cc2Cl)[C@H]1O [vancomycin, reference compound] | – | – | – | – | – | – | – | – | – | – | IC50 [18, 22]: 17 µM
